{"source": "patent US20040214320A1", "about": "“Mammalian gamete and embryo culture media supplement and method of using same” (Vitrolife, Inc,, priority 2000, published 2004)", "assay_type_in_all_cases": "cell-based", "key": {"outbred mouse embryo": {"system": "outbred mouse embryo", "assay": "Outbred mouse embryo development in culture, fertilized eggs cultured 4 days (G1.2 48 h, then G2.2 48 h)", "method": "Embryos were cultured at 37° C. in 6% CO2:5% O2:89% N2 in an embryo incubation volume of 10 embryos: 20 μl of medium. Embryos were cultured in medium G 1.2 for 48 h followed by 48 h of culture in medium G 2.2.\nInitial experiments investigated replacing albumin purified from blood with HYN for outbred mouse embryo development in culture. Fertilized eggs were cultured for 4 days in one of 4 different concentrations of HYN. Embryos were cultured at 37° C. in 6% CO2:5% O2:89% N2 in an embryo incubation volume of 10 embryos: 20 μl of medium. Embryos were cultured in medium G1.2 for 48 h followed by 48 h of culture in medium G2.2. The negative control treatment was no protein.\nFertilized eggs were cultured for 4 days. Embryos were cultured at 37° C. in 6% CO2:5% O2:89% N2 in an embryo incubation volume of 10 embryos: 20 μl of medium. Embryos were cultured in medium G 1.2 for 48 h followed by 48 h of culture in medium G 2.2.\nEmbryos were cultured at 37° C. in 6% CO2:5% O2:89% N2 in an embryo incubation volume of 10 embryos: 20 μl of medium. Embryos were cultured in medium G1.2 for 48 h followed by 48 h of culture in medium G2.2."}, "mouse embryo": {"system": "mouse embryo", "assay": "Mouse embryo development in culture, 48 h in G1.2, with or without citrate", "method": "Embryos were cultured at 37° C. in 6% CO2:5% O2:89% N2 in an embryo incubation volume of 10 embryos: 20 μl of medium. Embryos were cultured in medium G1.2 for 48 h."}, "cow embryos": {"system": "cow embryos", "assay": "Cow embryo development in culture, fertilized eggs cultured 6 to 7 days (G1.2 72 h, then G2.2 72 h)", "conditions": "Example 7, cow", "method": "(§1) Fertilized eggs were cultured for 6 to 7 days. Embryos were cultured at 38.5° C. in 6% CO2:5% O2:89% N2 in 500 μl of medium. Embryos were cultured in medium G1.2 for 72 h followed by 72 h of culture in medium G2.2.\nas §1\nFertilized eggs were cultured for 6 to 7 days. Embryos were cultured at 38.5° C. in 6% CO2:5% O2:89% N2 in 500 μl of medium. Embryos were cultured in medium G1.2 for 72 h, followed by 72 h of culture in medium G2.2. Blastocysts were either stained for cell numbers or frozen and subsequently thawed to assess survival."}, "CF1 mouse blastocysts": {"system": "CF1 mouse blastocysts", "assay": "Blastocyst attachment and outgrowth in culture following cryopreservation", "method": "The ability of the blastocysts to outgrow in culture following cryopreservation was also assessed. The outgrowth of both the ICM and TE was scored between 0-3 where 0 represented no outgrowth and 3 represented extensive outgrowth."}, "[1]": {"conditions": "treatment +/+ (citrate in first 48 h / further 48 h), medium with rHA and HYN"}, "[2]": {"conditions": "treatment +/− (citrate in first 48 h / further 48 h), medium with rHA and HYN"}, "[3]": {"conditions": "treatment −/+ (citrate in first 48 h / further 48 h), medium with rHA and HYN"}, "[4]": {"conditions": "citrate added to medium G1.2 with rHA and HYN"}, "[5]": {"conditions": "HYN 0.125 mg/ml, no protein, 4 days culture"}, "[6]": {"conditions": "HYN 0.5 mg/ml, no protein, 4 days culture"}, "[7]": {"conditions": "HYN 1 mg/ml, no protein, 4 days culture"}}, "note": "Marks after values point to notes of the source that are not given here.", "data": [{"compound": "O=C(O)CC(O)(CC(=O)O)C(=O)O", "note": "[citrate]", "values": [{"measurement": "embryo development", "setting": "outbred mouse embryo; Example 6, citrate added to medium with rHA and HYN, 96 h", "result": "significantly increased"}, {"measurement": "% ICM/Total", "setting": "outbred mouse embryo; [1]", "result": 30.4, "unit": "%"}, {"measurement": "Cell Number", "setting": "outbred mouse embryo; [1]", "result": 100.7}, {"measurement": "Hatching (% of Total)", "setting": "outbred mouse embryo; [1]", "result": 18.2, "unit": "%"}, {"measurement": "Morula/Blastocyst (%)", "setting": "outbred mouse embryo; [1]", "result": 72.7, "unit": "%"}, {"measurement": "TE Number", "setting": "outbred mouse embryo; [1]", "result": 69.8}, {"measurement": "Total Blastocyst (%)", "setting": "outbred mouse embryo; [1]", "result": 62.7, "unit": "%"}, {"measurement": "% ICM/Total", "setting": "outbred mouse embryo; [2]", "result": 30.7, "unit": "%"}, {"measurement": "Cell Number", "setting": "outbred mouse embryo; [2]", "result": 112.6}, {"measurement": "Hatching (% of Total)", "setting": "outbred mouse embryo; [2]", "result": 16.8, "unit": "%"}, {"measurement": "ICM Number", "setting": "outbred mouse embryo; [2]", "result": 34.9}, {"measurement": "Morula/Blastocyst (%)", "setting": "outbred mouse embryo; [2]", "result": 71.3, "unit": "%"}, {"measurement": "TE Number", "setting": "outbred mouse embryo; [2]", "result": 77.7}, {"measurement": "Total Blastocyst (%)", "setting": "outbred mouse embryo; [2]", "result": 67.3, "unit": "%"}, {"measurement": "% ICM/Total", "setting": "outbred mouse embryo; [3]", "result": 34.5, "unit": "%"}, {"measurement": "Cell Number", "setting": "outbred mouse embryo; [3]", "result": 94.8}, {"measurement": "Hatching (% of Total)", "setting": "outbred mouse embryo; [3]", "result": 23.2, "unit": "%"}, {"measurement": "ICM Number", "setting": "outbred mouse embryo; [3]", "result": 33.4}, {"measurement": "Morula/Blastocyst (%)", "setting": "outbred mouse embryo; [3]", "result": 68.5, "unit": "%"}, {"measurement": "TE Number", "setting": "outbred mouse embryo; [3]", "result": 61.44}, {"measurement": "Total Blastocyst (%)", "setting": "outbred mouse embryo; [3]", "result": 64.8, "unit": "%"}, {"measurement": "% 8 cell", "setting": "mouse embryo; [4]", "result": "81.1* %"}, {"measurement": "% compacted", "setting": "mouse embryo; [4]", "result": "12.2* %"}, {"measurement": "Day 3 mean cell number", "setting": "mouse embryo; [4]", "result": "7.21 ± 0.13"}, {"measurement": "embryo development", "setting": "mouse embryo; citrate added to medium containing rHA and fermented HYN", "result": "significant increase"}]}, {"compound": "hyaluronan [HYN]", "values": [{"measurement": "% ICM/Total", "setting": "outbred mouse embryo; [5]", "result": "26.5 ± 0.6^ac %"}, {"measurement": "Blastocyst", "setting": "outbred mouse embryo; [5]", "result": "88.6^a"}, {"measurement": "Cell Number", "setting": "outbred mouse embryo; [5]", "result": "79.6 ± 1.9^bc"}, {"measurement": "Hatching", "setting": "outbred mouse embryo; [5]", "result": 57.1, "unit": "b^c"}, {"measurement": "ICM Number", "setting": "outbred mouse embryo; [5]", "result": "21.2 ± 0.8^bc"}, {"measurement": "TE Number", "setting": "outbred mouse embryo; [5]", "result": "58.7 ± 1.5^bc"}, {"measurement": "% ICM/Total", "setting": "outbred mouse embryo; [6]", "result": "28.3 ± 1.1^bc %"}, {"measurement": "Blastocyst", "setting": "outbred mouse embryo; [6]", "result": "100^a"}, {"measurement": "Cell Number", "setting": "outbred mouse embryo; [6]", "result": "64.2 ± 1.9^ac"}, {"measurement": "Hatching", "setting": "outbred mouse embryo; [6]", "result": "50^b"}, {"measurement": "ICM Number", "setting": "outbred mouse embryo; [6]", "result": "18.0 ± 0.7^ac"}, {"measurement": "TE Number", "setting": "outbred mouse embryo; [6]", "result": "46.7 ± 2.0^a"}, {"measurement": "% ICM/Total", "setting": "outbred mouse embryo; [7]", "result": "26.4 ± 0.9^ac %"}, {"measurement": "Blastocyst", "setting": "outbred mouse embryo; [7]", "result": "61.8^b"}, {"measurement": "Cell Number", "setting": "outbred mouse embryo; [7]", "result": "62.0 ± 2.7^ac"}, {"measurement": "Hatching", "setting": "outbred mouse embryo; [7]", "result": "23.5^a"}, {"measurement": "ICM Number", "setting": "outbred mouse embryo; [7]", "result": "17.5 ± 0.8^ac"}, {"measurement": "TE Number", "setting": "outbred mouse embryo; [7]", "result": "49.1 ± 2.5^a"}, {"measurement": "mouse embryo development", "setting": "outbred mouse embryo; concentrations from 0.125 to 0.5 mg/ml", "result": "stimulated"}, {"measurement": "Total Blastocyst Day 6", "setting": "cow embryos; day 6", "result": "16.9^b"}, {"measurement": "Total Blastocyst Day 7", "setting": "cow embryos; day 7", "result": 30.4}, {"measurement": "development of the ICM (outgrowth) compared to human serum albumin", "setting": "CF1 mouse blastocysts", "result": "increased"}]}]}
